Laboratory results from paper PMC11420878, “Labeling of CC Chemokine Receptor 2 with a Versatile Intracellular Allosteric Probe” (ACS Chemical Biology, 2024).

Experiments:
Assay type in all cases: binding
[1] = target: T1, CC chemokine receptor 2 (CCR2) (Homo sapiens, UniProt P41597); assay: [3H]CCR2-RA-[R] displacement, […] h preincubation; in-gel fluorescence labeling; design: CCR2 stably expressed in U2OS membranes; HA-CCR2 in HEK293T membranes
[2] = target: T1, CC chemokine receptor 2 (CCR2); assay: [3H]CCR2-RA-[R] displacement (Ki shift), in-gel fluorescence labeling, pull-down proteomics; design: CCR2 stably expressed in U2OS membranes; HA-CCR2 in HEK293T membranes
[3] = target: T1, CC chemokine receptor 2 (CCR2); assay: [3H]CCR2-RA-[R] displacement, […] h preincubation; design: CCR2 stably expressed in U2OS membranes

T1 sequence (P41597 whole entry): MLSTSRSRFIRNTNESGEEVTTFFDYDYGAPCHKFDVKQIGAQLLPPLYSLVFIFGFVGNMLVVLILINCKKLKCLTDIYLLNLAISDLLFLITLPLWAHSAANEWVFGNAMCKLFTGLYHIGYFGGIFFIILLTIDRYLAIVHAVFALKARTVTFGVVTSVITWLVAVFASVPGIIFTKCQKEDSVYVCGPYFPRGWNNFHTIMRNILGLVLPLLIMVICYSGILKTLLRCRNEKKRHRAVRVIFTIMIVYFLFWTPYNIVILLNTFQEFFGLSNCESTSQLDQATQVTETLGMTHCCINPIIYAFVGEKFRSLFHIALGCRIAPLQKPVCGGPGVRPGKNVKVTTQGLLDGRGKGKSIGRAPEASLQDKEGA

`C#CCOCCOc1cc(NC(=O)C=C)ccc1Oc1ccc(Cl)cc1NS(=O)(=O)c1ccc(Cl)c(C(F)(F)F)c1` [6b] showed a Ki [1] of roughly 0.5 nM.
`C#CCOCCOCCOc1cc(NC(=O)C=C)ccc1Oc1ccc(Cl)cc1NS(=O)(=O)c1ccc(Cl)c(C(F)(F)F)c1` [6c, probe 6c] was tested, and the Ki [2] was roughly 0.5 nM.
Compound `C#CCOCCOCCOc1cc(NC(=O)CCSC#N)ccc1Oc1ccc(Cl)cc1NS(=O)(=O)c1ccc(Cl)c(C(F)(F)F)c1` [8c] has a Ki [3] of roughly 1.3 nM.
Work on `C#CCOc1cc(NC(=O)C=C)ccc1Oc1ccc(Cl)cc1NS(=O)(=O)c1ccc(Cl)c(C(F)(F)F)c1` [6a] yielded a Ki [1] of roughly 0.5 nM.
In the case of `C#CCOCCOc1cc(NC(=O)CCSC#N)ccc1Oc1ccc(Cl)cc1NS(=O)(=O)c1ccc(Cl)c(C(F)(F)F)c1` [8b], the Ki [3] is reported as roughly 1.3 nM.
`C#CCOc1cc(NC(=O)CCSC#N)ccc1Oc1ccc(Cl)cc1NS(=O)(=O)c1ccc(Cl)c(C(F)(F)F)c1` [8a] showed a Ki [3] of roughly 1.3 nM.
